Active and inactive are the calls of the source.

Usually AC50 stands for the midpoint of the concentration-response curve, whichever way the signal moves.

Assay [1] has as its target Beta-lactamase (Salmonella choleraesuis (strain SC-B67), UniProt Q5J463). In words: Epi-absorbance-based counterscreen for selective VIM-2 inhibitors: dose response biochemical high throughput screening assay to identify inhibitors of TEM-1 serine-beta-lactamase.
For assay [2], the target named is T1, Beta-lactamase (Pseudomonas aeruginosa, UniProt Q79MP6). In words: inhibition of IMP-1 beta-lactamase activity – biochemical, epi-absorbance, selectivity assay for VIM-2 inhibitor project, dose response (AID 1920).
T1 sequence (Q79MP6 whole entry): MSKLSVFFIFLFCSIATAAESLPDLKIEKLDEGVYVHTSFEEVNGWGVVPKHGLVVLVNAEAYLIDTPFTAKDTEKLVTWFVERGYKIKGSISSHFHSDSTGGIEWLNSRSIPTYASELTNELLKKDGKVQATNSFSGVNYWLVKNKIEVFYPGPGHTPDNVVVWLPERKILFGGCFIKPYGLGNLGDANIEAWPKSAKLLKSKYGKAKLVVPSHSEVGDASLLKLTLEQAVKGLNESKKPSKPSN
Assay [3] deals with T1, Beta-lactamase. In words: […] counterscreen for selective VIM-2 inhibitors: dose response biochemical high throughput screening assay to identify inhibitors of IMP-1 metallo-beta-lactamase. (In general: Counterscreens check selectivity or assay interference.)
The target in a further assay is Prothrombin (Bos taurus, UniProt P00735). In words: thrombin protease inhibitors – biochemical, fluorescence polarization, uHTS hits, dose response (AID 602369). It counts as functional.
Assay [4] deals with G-protein coupled receptor 55 (Homo sapiens, UniProt Q9Y2T6). In words: inhibition of LPI-stimulated GPR55 beta-arrestin translocation – imaging, U2OS, beta-arrestin-GFP, LPI agonist, primary screen (AID 2013).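 Further: antagonist potency measured as reduced agonist-driven arrestin aggregation.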 It counts as functional.
The target in assay [5] is 72 kDa type IV collagenase (Homo sapiens, UniProt P08253). Put plainly: Dose Response validation of uHTS RPN11 inhibitor hits using a MMP-2 Fluorescence assay. It counts as functional.
Sequence of 72 kDa type IV collagenase (P08253 whole entry): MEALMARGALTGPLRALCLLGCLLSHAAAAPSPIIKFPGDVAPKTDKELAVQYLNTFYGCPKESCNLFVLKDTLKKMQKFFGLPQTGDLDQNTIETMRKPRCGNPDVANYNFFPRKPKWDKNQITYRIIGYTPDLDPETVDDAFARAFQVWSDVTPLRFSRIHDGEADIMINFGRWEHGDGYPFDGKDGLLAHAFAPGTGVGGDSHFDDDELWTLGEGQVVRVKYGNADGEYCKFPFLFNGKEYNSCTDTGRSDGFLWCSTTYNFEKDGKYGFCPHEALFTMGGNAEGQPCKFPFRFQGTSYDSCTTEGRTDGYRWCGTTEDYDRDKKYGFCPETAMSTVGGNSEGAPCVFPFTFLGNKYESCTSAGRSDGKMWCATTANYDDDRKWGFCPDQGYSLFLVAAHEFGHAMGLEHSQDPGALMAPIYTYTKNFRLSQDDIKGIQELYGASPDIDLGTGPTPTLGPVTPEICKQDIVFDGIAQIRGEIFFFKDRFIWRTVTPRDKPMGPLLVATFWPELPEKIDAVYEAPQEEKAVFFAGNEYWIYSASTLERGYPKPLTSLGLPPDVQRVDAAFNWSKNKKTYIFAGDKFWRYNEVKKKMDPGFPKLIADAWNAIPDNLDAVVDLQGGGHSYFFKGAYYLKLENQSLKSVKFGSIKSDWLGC
For assay [6], the target named is T2, Histone-lysine N-methyltransferase NSD2 (Homo sapiens, UniProt O96028).
T2 sequence (O96028 whole entry): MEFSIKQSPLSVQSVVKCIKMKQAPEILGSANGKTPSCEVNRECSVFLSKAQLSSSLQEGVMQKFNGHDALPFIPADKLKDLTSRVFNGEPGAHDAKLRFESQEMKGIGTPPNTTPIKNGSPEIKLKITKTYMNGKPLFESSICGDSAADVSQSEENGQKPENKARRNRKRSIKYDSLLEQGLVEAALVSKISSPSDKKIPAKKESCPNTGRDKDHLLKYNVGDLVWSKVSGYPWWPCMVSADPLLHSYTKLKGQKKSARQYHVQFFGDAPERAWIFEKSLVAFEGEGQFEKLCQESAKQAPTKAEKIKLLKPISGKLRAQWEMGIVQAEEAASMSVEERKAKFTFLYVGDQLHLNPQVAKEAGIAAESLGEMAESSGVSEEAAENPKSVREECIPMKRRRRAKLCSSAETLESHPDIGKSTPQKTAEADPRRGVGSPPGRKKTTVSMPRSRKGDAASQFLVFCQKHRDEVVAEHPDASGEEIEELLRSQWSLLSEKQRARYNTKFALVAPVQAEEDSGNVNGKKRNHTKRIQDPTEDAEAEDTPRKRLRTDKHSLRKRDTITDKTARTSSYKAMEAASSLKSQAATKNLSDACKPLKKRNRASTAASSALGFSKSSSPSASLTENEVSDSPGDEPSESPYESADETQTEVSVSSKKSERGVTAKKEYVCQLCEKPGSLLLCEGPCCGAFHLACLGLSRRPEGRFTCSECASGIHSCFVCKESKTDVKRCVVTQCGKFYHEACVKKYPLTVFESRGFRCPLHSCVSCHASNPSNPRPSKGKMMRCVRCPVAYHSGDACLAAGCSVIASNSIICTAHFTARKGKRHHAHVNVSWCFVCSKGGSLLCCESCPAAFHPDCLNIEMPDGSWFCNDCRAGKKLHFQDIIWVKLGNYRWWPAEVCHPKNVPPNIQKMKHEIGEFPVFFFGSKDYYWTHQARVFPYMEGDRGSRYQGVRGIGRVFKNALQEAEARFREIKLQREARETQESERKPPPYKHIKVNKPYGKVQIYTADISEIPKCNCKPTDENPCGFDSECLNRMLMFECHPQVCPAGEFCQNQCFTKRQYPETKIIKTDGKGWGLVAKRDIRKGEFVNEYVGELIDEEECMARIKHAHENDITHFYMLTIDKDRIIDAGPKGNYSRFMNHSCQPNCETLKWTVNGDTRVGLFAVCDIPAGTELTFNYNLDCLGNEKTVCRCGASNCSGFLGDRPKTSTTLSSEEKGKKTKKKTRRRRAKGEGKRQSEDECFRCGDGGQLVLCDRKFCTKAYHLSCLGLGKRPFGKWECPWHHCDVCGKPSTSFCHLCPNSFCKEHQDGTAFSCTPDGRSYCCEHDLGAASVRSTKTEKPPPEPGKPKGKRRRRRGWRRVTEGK
It counts as biochemical.

Assay [7] has as its target T3, Carboxy-terminal domain RNA polymerase II polypeptide A small phosphatase 1 (Homo sapiens, UniProt Q9GZU7).
T3 sequence (Q9GZU7 whole entry): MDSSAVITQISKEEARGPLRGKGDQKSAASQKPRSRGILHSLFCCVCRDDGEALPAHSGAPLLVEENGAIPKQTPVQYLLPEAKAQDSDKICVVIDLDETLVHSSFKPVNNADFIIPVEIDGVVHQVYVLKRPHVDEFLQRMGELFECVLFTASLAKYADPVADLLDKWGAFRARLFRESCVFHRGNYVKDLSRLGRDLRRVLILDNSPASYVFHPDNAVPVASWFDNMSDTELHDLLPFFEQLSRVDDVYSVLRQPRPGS
In words: CTDSP1 inhibitors, concentration-response, biochemical, absorbance readout, ultra-high-throughput screen actives (AID 540297). It counts as functional.

Assay [8] concerns the target 26S proteasome non-ATPase regulatory subunit 14 (Homo sapiens, UniProt O00487). In words: inhibition of proteasome subunit RPN11 – biochemical, fluorescence polarization, uHTS hits, confirmation (AID 602368). It counts as functional.
The target in assay [9] is DNA (cytosine-5)-methyltransferase 1 (Homo sapiens, UniProt P26358). In words: inhibition of DNA methylation by DNMT1 – biochemical, fluorescent molecular beacon, confirmation (AID 602386). It counts as functional.
Sequence of DNA (cytosine-5)-methyltransferase 1 (P26358 whole entry): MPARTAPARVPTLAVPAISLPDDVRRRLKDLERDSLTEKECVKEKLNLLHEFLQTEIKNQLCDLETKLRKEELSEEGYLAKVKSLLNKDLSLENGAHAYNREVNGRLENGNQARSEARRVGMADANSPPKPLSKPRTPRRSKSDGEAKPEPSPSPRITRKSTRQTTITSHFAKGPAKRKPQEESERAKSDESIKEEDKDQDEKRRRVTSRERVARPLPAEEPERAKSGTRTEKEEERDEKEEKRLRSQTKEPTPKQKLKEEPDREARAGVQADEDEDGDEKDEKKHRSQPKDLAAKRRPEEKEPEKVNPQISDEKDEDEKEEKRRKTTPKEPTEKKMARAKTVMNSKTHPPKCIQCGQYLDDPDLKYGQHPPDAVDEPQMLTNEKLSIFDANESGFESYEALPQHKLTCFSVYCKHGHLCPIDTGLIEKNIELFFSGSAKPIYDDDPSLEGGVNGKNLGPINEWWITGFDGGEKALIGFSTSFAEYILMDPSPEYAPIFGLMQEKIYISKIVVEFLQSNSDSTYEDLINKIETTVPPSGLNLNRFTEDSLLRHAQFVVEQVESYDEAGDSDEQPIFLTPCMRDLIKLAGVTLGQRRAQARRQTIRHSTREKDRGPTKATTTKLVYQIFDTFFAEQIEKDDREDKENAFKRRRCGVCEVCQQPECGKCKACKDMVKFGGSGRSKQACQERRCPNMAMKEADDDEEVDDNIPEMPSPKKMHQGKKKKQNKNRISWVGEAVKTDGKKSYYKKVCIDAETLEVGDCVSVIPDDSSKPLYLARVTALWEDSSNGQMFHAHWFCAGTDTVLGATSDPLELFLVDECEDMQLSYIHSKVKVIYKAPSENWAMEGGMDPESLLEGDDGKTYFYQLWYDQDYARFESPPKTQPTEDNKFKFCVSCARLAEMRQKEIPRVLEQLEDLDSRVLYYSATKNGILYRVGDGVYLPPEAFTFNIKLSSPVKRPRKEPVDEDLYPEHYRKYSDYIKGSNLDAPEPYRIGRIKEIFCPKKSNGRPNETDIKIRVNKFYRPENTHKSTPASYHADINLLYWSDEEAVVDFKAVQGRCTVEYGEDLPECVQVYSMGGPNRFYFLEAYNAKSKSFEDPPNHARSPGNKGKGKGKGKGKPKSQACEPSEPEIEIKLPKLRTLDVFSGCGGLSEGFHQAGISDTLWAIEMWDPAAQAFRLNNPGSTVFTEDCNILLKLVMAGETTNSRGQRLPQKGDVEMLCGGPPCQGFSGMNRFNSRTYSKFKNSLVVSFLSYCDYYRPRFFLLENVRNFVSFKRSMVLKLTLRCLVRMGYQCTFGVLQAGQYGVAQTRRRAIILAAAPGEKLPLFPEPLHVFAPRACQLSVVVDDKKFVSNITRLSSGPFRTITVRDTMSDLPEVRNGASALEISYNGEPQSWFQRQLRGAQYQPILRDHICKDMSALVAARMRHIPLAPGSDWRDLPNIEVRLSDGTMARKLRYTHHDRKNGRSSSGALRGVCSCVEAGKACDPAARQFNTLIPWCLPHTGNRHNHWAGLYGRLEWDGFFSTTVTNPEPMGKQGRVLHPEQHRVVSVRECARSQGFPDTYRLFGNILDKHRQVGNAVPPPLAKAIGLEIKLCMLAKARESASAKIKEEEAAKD
The target in assay [10] is Potassium voltage-gated channel subfamily KQT member 2 (Rattus norvegicus, UniProt O88943). In words: blockers of KCNQ2 channel current – cell-based, automated electrophysiology, set II, rat KCNQ2, dose response (AID 588637). It counts as functional.
Sequence of Potassium voltage-gated channel subfamily KQT member 2 (O88943 whole entry): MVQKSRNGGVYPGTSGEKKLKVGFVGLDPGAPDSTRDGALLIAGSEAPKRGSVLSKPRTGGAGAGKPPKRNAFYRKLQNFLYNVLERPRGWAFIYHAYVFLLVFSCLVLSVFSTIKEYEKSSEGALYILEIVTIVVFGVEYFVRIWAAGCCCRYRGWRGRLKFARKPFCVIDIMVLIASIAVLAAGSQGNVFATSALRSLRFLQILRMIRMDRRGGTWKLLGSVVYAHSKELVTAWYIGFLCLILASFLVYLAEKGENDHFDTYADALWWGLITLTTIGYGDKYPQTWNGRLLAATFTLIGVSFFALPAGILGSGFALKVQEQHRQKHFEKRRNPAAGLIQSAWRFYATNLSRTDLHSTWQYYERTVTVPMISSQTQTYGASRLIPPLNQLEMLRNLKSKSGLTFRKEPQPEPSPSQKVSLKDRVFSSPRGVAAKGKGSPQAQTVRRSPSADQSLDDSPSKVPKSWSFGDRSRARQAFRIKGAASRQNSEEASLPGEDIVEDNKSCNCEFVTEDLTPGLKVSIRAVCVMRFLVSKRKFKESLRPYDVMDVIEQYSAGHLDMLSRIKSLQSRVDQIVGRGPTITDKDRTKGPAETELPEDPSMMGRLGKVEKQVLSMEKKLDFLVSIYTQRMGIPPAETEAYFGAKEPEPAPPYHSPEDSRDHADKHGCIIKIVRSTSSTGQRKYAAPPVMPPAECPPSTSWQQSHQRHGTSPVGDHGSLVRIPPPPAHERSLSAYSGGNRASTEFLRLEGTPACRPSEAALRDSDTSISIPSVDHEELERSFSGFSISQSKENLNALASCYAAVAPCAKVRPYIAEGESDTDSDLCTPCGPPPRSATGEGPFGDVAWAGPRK
Assay [11] has as its target T4, Tyrosine-protein phosphatase non-receptor type 22 (Homo sapiens, UniProt Q9Y2R2).
T4 sequence (Q9Y2R2 whole entry): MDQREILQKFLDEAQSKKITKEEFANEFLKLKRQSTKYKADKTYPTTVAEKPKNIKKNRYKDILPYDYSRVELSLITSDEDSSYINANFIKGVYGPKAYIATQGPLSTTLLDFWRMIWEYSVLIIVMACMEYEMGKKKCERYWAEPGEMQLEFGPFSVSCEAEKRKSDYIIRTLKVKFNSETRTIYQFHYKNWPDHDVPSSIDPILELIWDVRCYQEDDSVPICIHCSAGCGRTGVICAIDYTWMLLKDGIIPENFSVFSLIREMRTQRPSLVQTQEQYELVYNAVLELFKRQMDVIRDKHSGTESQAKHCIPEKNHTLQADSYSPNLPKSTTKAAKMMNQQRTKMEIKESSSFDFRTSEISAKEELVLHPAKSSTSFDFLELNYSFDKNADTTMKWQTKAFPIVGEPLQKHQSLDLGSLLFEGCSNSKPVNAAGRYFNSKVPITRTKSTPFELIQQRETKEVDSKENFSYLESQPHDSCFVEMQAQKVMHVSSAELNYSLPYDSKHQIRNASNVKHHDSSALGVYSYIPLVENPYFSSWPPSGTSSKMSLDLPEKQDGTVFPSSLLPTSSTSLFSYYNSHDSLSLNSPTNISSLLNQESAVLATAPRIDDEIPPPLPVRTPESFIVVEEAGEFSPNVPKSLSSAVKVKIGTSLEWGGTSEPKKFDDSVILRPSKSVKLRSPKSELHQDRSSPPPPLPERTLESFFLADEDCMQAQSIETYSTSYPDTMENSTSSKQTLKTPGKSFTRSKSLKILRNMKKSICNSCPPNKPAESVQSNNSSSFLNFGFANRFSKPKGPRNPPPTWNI
In words: lymphoid phosphatase LYP inhibitors – biochemical, selectivity assay for STEP inhibitor project, dose response (AID 624241). It counts as functional.

A short description of assay [12]: viability of HCT116 lacking mutant beta-catenin – cell-based, human colon tumor, dose response (AID 1045).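 Further: HCT116 colon tumor cells with beta catenin knocked out; cells exposed to compound for 60 hours.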 It counts as functional.
The target of assay [13] is Tyrosine-protein phosphatase non-receptor type 5 (Homo sapiens, UniProt P54829). Put plainly: PTPN5 enzyme inhibition – biochemical, fluorescence intensity, uHTS hits, confirmation (AID 602372). It counts as functional. Particulars: read-out: IC50_Mean.
Assay [14] concerns the target Tyrosine-protein phosphatase non-receptor type 11 (Homo sapiens, UniProt Q06124). In words: PTPN11 enzyme inhibitors – biochemical, selectivity assay for STEP inhibitor project, dose response (AID 602367). Particulars: read-out: IC50_Mean. It counts as functional.
Assay [15] has as its target Dual specificity protein phosphatase 3 (Homo sapiens, UniProt P51452). In words: VHR phosphatase inhibition, dose response, selectivity assay for STEP inhibitor project, biochemical (AID 602374). It counts as functional. Particulars: read-out: IC50_Mean.
Assay [16] is described as follows: viability of PTEN-deleted HCT116 cells – cell-based, HCT116 PTEN knockout, dose response (AID 1047).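 Further: HCT116 colon tumor cells with PTEN knocked out; cells exposed to compound for 60 hours before readout; potency for loss of cell viability measured by luminescence.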 It counts as functional.
Assay [17] addresses T5, Low molecular weight phosphotyrosine protein phosphatase (Homo sapiens, UniProt P24666).
T5 sequence (P24666 whole entry): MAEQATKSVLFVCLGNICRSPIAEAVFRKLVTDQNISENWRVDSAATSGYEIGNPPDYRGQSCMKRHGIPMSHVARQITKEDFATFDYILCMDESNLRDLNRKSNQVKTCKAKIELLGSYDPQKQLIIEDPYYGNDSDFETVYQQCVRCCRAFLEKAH
It counts as functional. Particulars: read-out: IC50_Mean.

Assay [18] concerns the target T5, Low molecular weight phosphotyrosine protein phosphatase. It counts as functional. Particulars: read-out: IC50_Mean. The source holds these as a separate data set.
Assay [19] addresses T6, ATP-dependent translocase ABCB1 (Homo sapiens, UniProt P08183). Put plainly: inhibition of BCRP-mediated JC-1 efflux – Ig-MXP3 cells, flow cytometry, set 2, dose response (AID 504566).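 Further: flow cytometry median green fluorescence of retained JC-1 dye; potency of efflux pump inhibition measured as rising substrate retention.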 It counts as functional. Particulars: read-out: EC50_MICROM_. (In general: In flow cytometry, cells or beads pass a laser one at a time.)
Assay [20] has as its target T6, ATP-dependent translocase ABCB1. In words: P-gp JC-1 efflux blockade concentration-response – Jurkat-DNR cells, flow cytometry, set 2, dose response (AID 504569).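 Further: potency of pump inhibitors that raise cellular JC-1 green fluorescence up to the nicardipine level.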 It counts as functional. Particulars: read-out: EC50_MICROM_.

T6 sequence (P08183 whole entry): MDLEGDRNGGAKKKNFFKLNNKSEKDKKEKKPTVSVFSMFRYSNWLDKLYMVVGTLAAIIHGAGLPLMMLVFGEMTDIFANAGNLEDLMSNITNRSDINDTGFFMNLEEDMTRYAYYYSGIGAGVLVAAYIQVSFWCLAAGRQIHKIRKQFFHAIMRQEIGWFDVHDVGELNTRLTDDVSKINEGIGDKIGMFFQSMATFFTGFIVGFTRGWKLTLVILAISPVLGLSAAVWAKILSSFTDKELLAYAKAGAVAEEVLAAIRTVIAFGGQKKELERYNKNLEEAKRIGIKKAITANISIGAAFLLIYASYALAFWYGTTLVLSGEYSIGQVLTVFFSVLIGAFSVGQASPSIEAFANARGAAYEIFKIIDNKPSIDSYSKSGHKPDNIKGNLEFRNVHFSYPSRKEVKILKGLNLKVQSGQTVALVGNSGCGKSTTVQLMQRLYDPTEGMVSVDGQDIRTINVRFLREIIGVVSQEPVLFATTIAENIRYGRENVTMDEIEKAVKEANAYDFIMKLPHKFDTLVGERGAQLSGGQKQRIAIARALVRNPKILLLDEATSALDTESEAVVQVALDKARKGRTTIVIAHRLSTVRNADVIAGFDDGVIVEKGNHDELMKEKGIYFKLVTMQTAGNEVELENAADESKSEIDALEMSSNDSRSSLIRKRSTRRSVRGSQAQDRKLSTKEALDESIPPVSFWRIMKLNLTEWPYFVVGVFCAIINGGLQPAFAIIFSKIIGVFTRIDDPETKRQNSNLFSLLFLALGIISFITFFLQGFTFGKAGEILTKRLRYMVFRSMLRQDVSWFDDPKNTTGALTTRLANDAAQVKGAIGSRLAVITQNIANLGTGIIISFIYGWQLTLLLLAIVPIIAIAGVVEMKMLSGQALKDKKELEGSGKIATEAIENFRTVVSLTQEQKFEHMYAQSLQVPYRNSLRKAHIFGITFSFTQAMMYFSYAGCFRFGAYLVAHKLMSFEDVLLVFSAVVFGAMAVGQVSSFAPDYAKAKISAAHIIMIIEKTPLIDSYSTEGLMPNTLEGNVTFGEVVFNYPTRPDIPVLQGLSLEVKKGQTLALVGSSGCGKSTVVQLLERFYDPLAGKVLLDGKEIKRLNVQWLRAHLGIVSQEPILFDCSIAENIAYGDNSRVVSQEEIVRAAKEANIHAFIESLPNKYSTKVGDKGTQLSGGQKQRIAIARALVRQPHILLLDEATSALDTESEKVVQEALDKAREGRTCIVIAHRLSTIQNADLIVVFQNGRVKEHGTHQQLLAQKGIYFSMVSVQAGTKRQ
Sequence of Dual specificity protein phosphatase 3 (P51452 whole entry): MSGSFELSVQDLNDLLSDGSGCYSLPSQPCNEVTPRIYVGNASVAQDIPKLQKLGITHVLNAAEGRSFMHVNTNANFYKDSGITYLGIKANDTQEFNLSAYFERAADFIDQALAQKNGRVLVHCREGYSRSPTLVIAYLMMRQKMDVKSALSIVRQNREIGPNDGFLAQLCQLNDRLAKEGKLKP

Regarding `Cc1c(C)c2c(OCC(=O)N3CCC[C@H]3C(=O)O)cc3c(c2oc1=O)CCC(C)(C)O3`, the IC50 at Beta-lactamase [1], at Beta-lactamase [2] and at Beta-lactamase [3] was > 59.6 µM (inactive) in each case.
For the molecule `COc1ccc(CN2C(=O)NC(=O)/C(=C\c3ccco3)C2=O)cc1`, the IC50 on Prothrombin was 54.1 µM (active); in assay [4], 3.34 µM (active); in assay [5], 12.7 µM (active); in assay [7], 3.91 µM (active); in assay [8] it was 26.5 µM (active); in assay [9], 12.3 µM (active). The AC50 in assay [6] is 12.8 µM (active).
Turning to `COc1ccc(CCN(C)C(=O)c2cc(-c3ccccc3)nc3ccc(C)cc23)cc1OC`, the IC50 in assay [10] is 0.478 µM (active).
As to `CCOc1ccc(C(=O)Nc2cc(-c3nc4ccccc4[nH]3)ccc2Cl)cc1[N+](=O)[O-]`, the IC50 in assay [11] was 29.9 µM (inactive); in [13], 6.73 µM (active); in assay [14] it was 2.14 µM (active); in assay [15], 3.11 µM (active). Further, the EC50 in [12] is 8.99 µM (active); in [16], 8.7 µM (active).
Regarding `Cc1nc(N)nc(N)c1-c1ccc([N+](=O)[O-])cc1`, the IC50 is 11.7 µM (active) in assay [17] and 12.3 µM (active) in assay [18].
For `O=C(c1ccoc1)N1CCN(c2cc(-c3ccccc3)nc3cc(-c4ccccc4)nn23)CC1`, the EC50 in [19] was 2.02 µM (active); in assay [20], 1.79 µM (active).

For the origin of these results see ChEMBL document CHEMBL1201862, “PubChem BioAssay data set” (2004).
